Measured values taken from BigSolDB 2.1.

CC(C)(Oc1ccc(CCNC(=O)c2ccc(Cl)cc2)cc1)C(=O)O
solubility (mole fraction)
Conditions | 283.15 K | 288.15 K | 293.15 K | 298.15 K | 303.15 K | 308.15 K | 313.15 K | 318.15 K | 323.15 K
in ethanol | 0.00223 | 0.00271 | 0.00332 | 0.00402 | 0.00482 | 0.00571 | 0.00689 | 0.00815 | 0.00977
in isopropanol | 0.00152 | 0.00189 | 0.00237 | 0.00307 | 0.00384 | 0.00476 | 0.00563 | 0.00689 | 0.00832
in methanol | 0.0019 | 0.00228 | 0.00283 | 0.00343 | 0.0043 | 0.00526 | 0.00648 | 0.00791 | 0.00948
in n-propanol | 0.00246 | 0.00297 | 0.00361 | 0.00437 | 0.00524 | 0.00631 | 0.00743 | 0.0088 | 0.0101
in water | 1.23e-06 | 1.58e-06 | 2.01e-06 | 2.56e-06 | 3.29e-06 | 4.13e-06 | 5.13e-06 | 6.3e-06 | 7.83e-06
